US6002009A, “Di-substituted 1,4-piperidine esters and amides having 5-HT4 antagonistic activity” (Boehringer Ingelheim Italia, S.p.A., priority 1995, dated 1999)

Target: 5-HT4 receptor (Sus scrofa, UniProt Q6Q253)
Assay: 5-HT4 receptor binding (competition against [^3 H]-GR 113808, pig striatum)
Conditions: 0.1 nM [^3 H]-GR 113808, 30 min at 37° C., read-out: Ki (affinity for the 5-HT4 receptor)
Procedure: The affinity of the compounds of formula (I) for 5-HT4 serotoninergic receptors was tested "in vitro" by receptor binding studies in the pig striatum, a tissue particularly rich in 5-HT4 receptors.
Receptor binding studies on 5-HT4 receptor were carried out to determine the affinity of the test compounds.
Pig striatum was removed, cleaned and homogenized (w/v 1:70) with an Ultra-Turrax at maximal speed for 30 s, followed by use of a Potter-Elvehjem homogenizer (30 strokes) in 50 mM Hepes buffer, pH 7.4 and filtered through two layers of cheese-cloth.
Binding curves for the different compounds were derived indirectly from competition experiments against 0.1 nM [^3 H]-GR 113808.
A 1 ml aliquot of homogenate was incubated for 30 min at 37° C. in the presence of the marker ligand and different concentrations of the cold ligands.
The incubation was stopped by rapid filtration using an automatic apparatus (1H -110 Inotech). The filters (Inotech glass fibre filter, type G7) were then transferred to scintillation vials containing 4 ml of Filter Count (Packard) and the radioactivity present was counted by liquid scintillation spectrometry (Kontron Betamat V). Assays were carried out in triplicated and non specific binding was defined as the radioactivity bound or entrapped in the filter when the incubation medium contained 10 μM of BIMU 0001 (3-ethyl-2,3-dihydro-2-oxo-benzimidazole-1(3a-tropyl carboxamide). Non specific binding was about 10-15%. The inhibition constant (Ki) was calculated after correction for the radioligand occupancy shift according to the equation of Cheng and Prusoff (Biochem. Pharmacol. 22, 3099, 1973).

Chain of 5-HT4 receptor (Q6Q253 1-402): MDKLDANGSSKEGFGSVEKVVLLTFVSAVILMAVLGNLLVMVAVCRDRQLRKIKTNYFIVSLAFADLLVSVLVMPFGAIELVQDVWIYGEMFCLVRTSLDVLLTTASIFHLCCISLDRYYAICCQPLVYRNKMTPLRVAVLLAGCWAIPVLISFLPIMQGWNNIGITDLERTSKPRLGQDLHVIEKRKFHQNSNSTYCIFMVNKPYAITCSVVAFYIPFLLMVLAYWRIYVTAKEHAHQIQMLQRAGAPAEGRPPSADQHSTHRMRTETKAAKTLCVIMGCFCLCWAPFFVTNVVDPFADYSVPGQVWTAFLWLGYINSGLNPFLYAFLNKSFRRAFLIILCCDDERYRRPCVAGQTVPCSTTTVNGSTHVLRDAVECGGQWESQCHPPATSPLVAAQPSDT

Compound | Ki [nM]
CCNC(=O)N[C@@H](Cc1c[nH]c2ccccc12)CN1CCC(COC(=O)c2cc(Cl)c(N)cc2OC)CC1 [Compound 1, S(+)-4-Amino-5-chloro-2-methoxy-benzoic acid {1-[2-(3-ethyl-ureido)-3-(1H-indol-3-yl)propyl]piperidin-4-yl} methyl, ester] | 4.6
CCOC(=O)N[C@@H](CCSC)CN1CCC(COC(=O)c2cc(Cl)c(N)cc2OC)CC1 [Compound 9, S(+)-4-Amino-5-chloro-2-methoxy-benzoic acid [1-(2-ethoxycarbonyl-amino-4-methylthio-butyl)-piperidin-4-yl]methyl ester] | 4.3
COc1cc(N)c(Cl)cc1C(=O)OCC1CCN(C[C@H](Cc2c[nH]c3ccccc23)NC(=O)OCc2ccccc2)CC1 [Compound 10, S(+)-4-Amino-5-chloro-2-methoxybenzoic acid {1-[2-benzyloxycarbonyl-amino-3-(1H-indol-3-yl)-propyl]piperidin-4-yl} methyl ester] | 2.1
COc1cc(N)c(Cl)cc1C(=O)OCC1CCN(C[C@H](Cc2ccccc2)NC(=O)OCc2ccccc2)CC1 [Compound 11, S(+)-4-Amino-5-chloro-2-methoxybenzoic acid [1-(2-benzyloxycarbonyl-amino-3-phenyl-propyl)-piperidin-4-yl]methyl ester] | 1.1
CCOC(=O)N[C@@H](CO)CN1CCC(COC(=O)n2c3ccccc3c3ccccc32)CC1 [Compound 12, R(+)-Carbazole-9-carboxylic acid [1(2-ethoxycarbonyl-amino-3-hydroxy-propyl)-piperidin-4-yl]methyl ester] | 2.8
CCNC(=O)N[C@@H](CO)CN1CCC(COC(=O)n2c3ccccc3c3ccccc32)CC1 [Compound 13, R(+)-Carbazole-9-carboxylic acid {1-[2-(3-ethyl-ureido)-3-hydroxy-propyl]-piperidin-4-yl} methyl ester] | 4.3
O=C(Nc1ccccc1)N[C@@H](CO)CN1CCC(COC(=O)c2c[nH]c3ccc(F)cc23)CC1 [Compound 16, R(+)-5-Fluoro-1H-indol-3-carboxylic acid {1-[2-(3-phenyl-ureido)-3-hydroxy-propyl]-piperidin-4-yl} methyl ester] | 2.9
COc1[nH]c2ccc(F)cc2c1C(=O)OCC1CCN(C[C@H](CO)NC(=O)OCc2ccccc2)CC1 [Compound 17, R(+)-5-Fluoro-2-methoxy-1H-indol-3-carboxylic acid [1-(2-benzyloxycarbonyl-amino-3-hydroxy-propyl)-piperidin-4-yl]methyl ester] | 0.16
CCOC(=O)N[C@@H](CO)CN1CCC(COC(=O)c2c(OC)[nH]c3ccc(F)cc23)CC1 [Compound 19, R(+)-5-Fluoro-2-methoxy-1H-indol-3-carboxylic acid [1-(2-ethoxycarbonyl-amino-3-hydroxy-propyl)piperidin-4-yl]methyl ester] | 0.25
C[C@@H](CN1CCC(COC(=O)n2c(=O)[nH]c3ccccc32)CC1)NC(=O)OCc1ccccc1 [Compound 21, S(+)-2-Oxo-2,3-dihydro-benzimidazol-1-carboxylic acid [1-(2-benzyloxycarbonyl-amino)-propyl-piperidin-4-yl]-methyl ester] | 1.3
CCn1c(=O)n(C(=O)OCC2CCN(C[C@H](C)NC(=O)OCc3ccccc3)CC2)c2ccccc21 [Compound 23, S(+)-3-Ethyl-2-oxo-2,3-dihydro-benzimidazol-1-carboxylic acid [1-(2-benzyloxycarbonyl-amino)-propyl-piperidin-4-yl]-methyl ester] | 0.86
CCn1c(=O)n(C(=O)NCC2CCN(C[C@H](CCSC)NC(=O)Nc3ccccc3)CC2)c2ccccc21 [Compound 26, S(-)-3-Ethyl-2-oxo-2,3-dihydro-benzimidazol-1-carboxamide-{1-[2-(3-phenyl-ureido)-4-methylthio-butyl]-piperidin-4-yl-methyl}] | 1
CCn1c(=O)n(C(=O)NCC2CCN(C[C@H](CC(N)=O)NC(=O)Nc3ccccc3)CC2)c2ccccc21 [Compound 30, S(+)-3-Ethyl-2-oxo-2,3-dihydro-benzimidazol-1-carboxamide-{1-[2-(3-phenyl-ureido)-3-carbamoyl-propyl]-piperidin-4-yl-methyl}] | 4.3
CCOC(=O)N[C@@H](CCSC)CN1CCC(CNC(=O)n2c(=O)n(CC)c3ccccc32)CC1 [Compound 34, S(+)-3-Ethyl-2-oxo-2,3-dihydro-benzimidazol-1-carboxamide-[1-(2-ethoxycarbonylamino-4-methylthio-butyl)-piperidin-4-yl-methl]] | 3.2
CCn1c(=O)n(C(=O)NCC2CCN(C[C@H](CO)NC(=O)Nc3ccccc3)CC2)c2ccccc21 [Compound 35, R(+)-3-Ethyl-2-oxo-2,3-dihydro-benzimidazol-1-carboxamide-{1-[2-(3-phenyl-ureido)-3-hydroxy-propyl]-piperidin-4-yl-methyl}] | 1.6
CCNC(=O)N[C@@H](CO)CN1CCC(CNC(=O)n2c(=O)n(CC)c3ccccc32)CC1 [Compound 36] | 3
CCn1c(=O)n(C(=O)NCC2CCN(C[C@H](CO)NC(=O)OCc3ccccc3)CC2)c2ccccc21 [Compound 37, R(+)-3-Ethyl-2-oxo-2,3-dihydro-benzimidazol-1-carboxamide-[1-(2-benzyloxycarbonylamino-3-hydroxy-propyl)-piperidin-4-yl-methyl]] | 0.37
